Laboratory results as given in PubChem BioAssay AID192 (DTP/NCI, 2004).
Several values for one entry are separate records, joined by “and”; a condition that tells them apart may be missing. Equal entries are not always repeated. Inconclusive results and toxic doses are left out.

Test system: BDF1 mice, B16 melanoma ip, median survival T/C
Assay: NCI In Vivo Anticancer Drug Screen. Data for tumor model B16 Melanoma (intraperitoneal) in B6D2F1 (BDF1) mice
Conditions: endpoint: median survival time, higher = longer survival
Procedure, shortened: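 The ratio T/C compares compound-treated mice with vehicle-treated controls, using survival or tumor size as the endpoint in a transplantable tumor model.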

[1] = dose: 25.0 mg/kg/injection, schedule: Q01DX009 (ip), vehicle: Klucel (hydroxypropylcellulose) (HPC)
[2] = dose: 25.0 mg/kg/injection, schedule: Q01DX009 (ip), vehicle: saline with Tween-80
[3] = dose: 50.0 mg/kg/injection, schedule: Q01DX009 (ip), vehicle: saline with Tween-80
[4] = dose: 12.5 mg/kg/injection, schedule: Q01DX009 (ip), vehicle: saline with Tween-80

For `COC(=O)[C@@H]1c2cc3c(c(O)c2[C@@H](OC2OC(C)C(OC)C(C)(OC)C2OC)C[C@]1(C)O)C(=O)c1c(O)cc2c(c1C3=O)O[C@H]1O[C@]2(C)[C@H](O)[C@@H](N(C)C)[C@@H]1O` (stereo partly drawn), the T/C (dose: 250.0 micrograms/kg/injection, schedule: Q01DX009 (ip), vehicle: other) was 171 % of control, the T/C (dose: 500.0 micrograms/kg/injection, schedule: Q01DX009 (ip), vehicle: other) was 171 % of control and the T/C (dose: 648.0 micrograms/kg/injection, schedule: Q04DX003 (ip), vehicle: lactic acid) was 100 % of control. The T/C (dose: 1080.0 micrograms/kg/injection, schedule: Q04DX003 (ip), vehicle: lactic acid) was 107 % of control and 121 % of control and the T/C (dose: 1800.0 micrograms/kg/injection, schedule: Q04DX003 (ip), vehicle: lactic acid) was 110 % of control.

With `O=C(CN1CC1)NCCCCCCCCNC(=O)CN1CC1` the T/C (dose: 6.25 mg/kg/injection, schedule: Q01DX009 (ip), vehicle: Klucel (hydroxypropylcellulose) (HPC)) was 124 % of control and the T/C [1] was 93 % of control.

For `COc1cc(Cc2nccc3cc(OC)c(OC)cc23)c(C(C)=O)cc1OC`, the T/C (dose: 3.12 mg/kg/injection, schedule: Q01DX009 (ip), vehicle: saline) was 93 % of control, the T/C (dose: 6.25 mg/kg/injection, schedule: Q01DX009 (ip), vehicle: saline) was 102 % of control and the T/C (dose: 12.5 mg/kg/injection, schedule: Q01DX009 (ip), vehicle: saline) was 97 % of control. The T/C (dose: 25.0 mg/kg/injection, schedule: Q01DX009 (ip), vehicle: saline) was 103 % of control and the T/C (dose: 50.0 mg/kg/injection, schedule: Q01DX009 (ip), vehicle: saline) was 100 % of control.

With `CCN(CC)CCNc1ccc(N=Nc2cnc3ccccc3c2)c2ccccc12` the T/C [2] was 90 % of control and the T/C [3] was 94 % of control.

With `Nc1ccc(-c2c(N)ncc3ccccc23)cc1` the T/C [4] was 101 % of control, the T/C [2] was 104 % of control and the T/C [3] was 103 % of control.

With `CC1(c2ccc(Cl)cc2)OC(=O)C(=Cc2ccc([N+](=O)[O-])s2)C(=O)O1` (stereo not drawn) the T/C (dose: 6.25 mg/kg/injection, schedule: Q01DX009 (ip), vehicle: saline with Tween-80) was 92 % of control and the T/C [4] was 87 % of control.

For `C/C(=N\[N+](C)(C)C)c1ccc2ccccc2c1`, the T/C [1] was 93 % of control and the T/C (dose: 50.0 mg/kg/injection, schedule: Q01DX009 (ip), vehicle: Klucel (hydroxypropylcellulose) (HPC)) was 100 % of control.

With `CC1(C)N=C(N)N=C(N)N1c1cccc(C#N)c1` the T/C (dose: 25.0 mg/kg/injection, schedule: Q01DX005 (ip), vehicle: saline) was 95 % of control, the T/C (dose: 50.0 mg/kg/injection, schedule: Q01DX005 (ip), vehicle: saline) was 100 % of control and the T/C (dose: 50.0 mg/kg/injection, schedule: Q04DX003 (ip), vehicle: saline) was 115 % of control. For the same compound, the T/C (dose: 100.0 mg/kg/injection, schedule: Q01DX005 (ip), vehicle: saline) was 104 % of control and the T/C (dose: 100.0 mg/kg/injection, schedule: Q04DX003 (ip), vehicle: saline) was 93 % of control.

With `CC(=O)c1ccc(Oc2ccc(/C(C)=N\N=C(N)N)cc2)cc1` the T/C [4] was 95 % of control and the T/C [2] was 92 % of control.
